14 compounds from patent US9464053B2, “Compositions for reducing Aβ 42 production and their use in treating alzheimer's disease (AD)” (KAREUS THERAPEUTICS SA, priority 2010, dated 2016) can be followed below.

The structures appear in SMILES notation. pIC50: −log10 of the molar value. Structures can show the parent of a compound that is named as a salt. Where two headings read alike, the source gives them in different places.

The subject of one data set is Aβ42 secretion. The data set can be described thus: Reduction of Aβ42 production in human neuronal SH-SY5Y cells (sandwich ELISA of cell media). The data set is classed as cell-based. Conditions: read-out: Aβ42 IC50. As for the experimental part:
We used the human Neuroblastoma SH-SY5Y cells for drug testing as a model for Aβ42 production. […] Cell toxicity was monitored using the MTT assay and all data reported are corrected for any cell loss.
The capture antibody, detection antibody and secondary antibody as well as standard purified preparations of Aβ42 were obtained from Sigma-Aldrich. Cells were cultured for 24 h in the presence or absence of compounds and the conditioned medium was subjected to sELISA.
Cells were incubated overnight with increasing concentrations the compounds. The cell media was then harvested and Aβ42 in the media was quantitated using sandwich ELISA.
(ELISA stands for enzyme-linked immunosorbent assay.)

In a further data set the test system is Aβ-42 levels in brain. In words: Brain Aβ-42 levels in rat after two weeks oral treatment (ELISA). The data set is classed as in vivo. The conditions noted are these: vs Control; Simvastatin 250 mg/kg oral; group terminated on day 12. As for the experimental part: Animals are randomized into different treatment groups based on body weight. The test compounds are administered orally for 2 weeks while the control animals are administered the vehicle alone.
At the end of the study, animals are sacrificed 2 hours after the last dose and brain samples are excised and immediately frozen on dry ice. The frozen brains are homogenized in 3 volumes (w/v) of ice-cold 0.2% Diethylamine containing 50 mM NaCl, pH 10, and protease inhibitors, and then centrifuged at 15000 rpm at 4° C. for 30 min using a centrifuge. The resulting supernatant is retained as the soluble fraction and neutralized by addition of 10% 0.5 M Tris-HCl, pH 6.8.
Ar3-42 levels in brain tissue extracts were determined by ELISA. […] 100 μL of this was coated per well in a 96 well immunoplate (NUNC) at 4° C. for 16-18 hours. The plate was washed 3× with 230 μL of wash buffer. The wells were then blocked with 150 μL of blocking buffer for 1 hour. The plate was washed 3× with 230 μL of wash buffer. Samples, standard (2500-1.1 ng/ml) and blank were added to the appropriate wells and incubated with mild shaking for 2 hours. The plate was then washed 3× with 230 μL of wash buffer. […] 100 μL of this was added per well and incubated with mild shaking for 2 hours. The plate was washed 3× with 230 μl of wash buffer. 100 lit of Detection antibody, Anti-rabbit IgG whole molecule HRP conjugate (Sigma A6154 diluted 1:1000 with 1% BSA) added in to the wells and incubated for 2 hours with mild shaking. The plate was washed 3× with 230 μl of wash buffer followed by 100 μL of Strepavidin HRP (1:200 diluted with 1% BSA). The plate was 3× with 230 μL of wash buffer and 100 μL of TMB/H2O2 substrate was added and incubated for 20 minutes. The reaction was topped by adding 50 μL of 2N H2SO4 and the absorbance was measured at 450/570 nm in a microplate reader (BioTek)

Setting [1] is: SH-SY5Y cells incubated overnight, Aβ42 in media by sandwich ELISA.

By melting point is commonly meant the temperature of the solid-liquid transition. A word on the pIC50: it is the IC50 on a negative log10 scale, so that one unit is a factor of ten.

`C=CCc1ccc(OC(=O)COC(=O)c2cccnc2)c(OC)c1` (as salt: hydrochloride) [Compound 8, nicotinic acid 4-allyl-2-methoxy-phenoxycarbonylmethyl ester] yielded a melting point of 109.3 to 111.2 °C.

Turning to `C=CCc1ccc(OC(=O)C(CCSC)NC(=O)c2cccnc2)c(OC)c1` (centres unmarked) [Compound 2, 4-methyl-sulfanyl-2-[(pyridine-3carbonyl)-amino] butyric acid-4-allyl-2-methoxy phenyl ester], the pIC50 with Aβ42 secretion (setting [1]) was less than 4.28.

For the compound `C=CCc1ccc(OC(=O)C(NC(=O)c2cccnc2)C(C)C)c(OC)c1` (centres unmarked) [Compound 3, 3-methyl-2-[pyridine-3-carbonyl]-amino-butyric acid-4-allyl-2-methoxy phenyl ester], the pIC50 in the data set with Aβ42 secretion (setting [1]) is less than 4.28.

As for `C=CCc1ccc(OC(=O)C(Cc2c[nH]c3ccccc23)NC(=O)c2cccnc2)c(OC)c1` (centres unmarked) [Compound 4], the pIC50 in the data set with Aβ42 secretion (setting [1]) is less than 4.28.

Turning to `C=CCc1ccc(OC(=O)C(Cc2ccc(O)cc2)NC(=O)c2cccnc2)c(OC)c1` (centres unmarked) [Compound 5, 3-(4-hydroxyphenyl)2-[(pyridine-3-carbonyl)amino]propionic acid-4-allyl-2-methoxy phenyl ester], the pIC50 in the data set on Aβ42 secretion (setting [1]) was less than 4.28.

Consider `C=CCc1ccc(OC(=O)C(NC(=O)c2cccnc2)C(C)CC)c(OC)c1` (centres unmarked) [Compound 6, 3-methyl-2-[pyridine-3-carbonyl]-amino-pentanoic acid-4-allyl-2-methoxy phenyl ester], for which the pIC50 with Aβ42 secretion (setting [1]) is less than 4.28.

Turning to `C=CCc1ccc(OC(=O)C(CCC(=O)O)NC(=O)c2cccnc2)c(OC)c1` (centres unmarked) [Compound 7, 2-[pyridine-3-carbonyl-amino]-pentane dioic acid-1-(4-allyl-2-methoxyphenyl)ester], the negative logarithm of the IC50 (pIC50) in the data set with Aβ42 secretion (setting [1]) is less than 4.28.

Turning to `C=CCc1ccc(OC(=O)COC(=O)c2cccnc2)c(OC)c1` [Compound 8, nicotinic acid 4-allyl-2-methoxy-phenoxycarbonylmethyl ester], the pIC50 with Aβ42 secretion (SH-SY5Y) was less than 4.82.

`C=CCc1ccc(OC(=O)C2CCCN2C(=O)c2cccnc2)c(OC)c1` (centres unmarked) [Compound 10, 1-(pyridine-3-carbonyl)-pyrrolidine-2-carboxylic acid 4-allyl-2-methoxy-phenyl ester]: the pIC50 with Aβ42 secretion (setting [1]) was 4.48.

In the case of `C=CCc1ccc(OC(=O)CNC(=O)c2cccnc2)c(OC)c1` [Compound 11, [(pyridine-3-carbonyl)-amino]-acetic acid 4-allyl-2-methoxy-phenyl ester], the pIC50 with Aβ42 secretion (setting [1]) is 4.80.

With `C=CCc1ccc(OC(=O)CCCNC(=O)c2cccnc2)c(OC)c1` [Compound 13, 4[(pyridine-3-carbonyl)-amino]-butyric acid-4-allyl-2-methoxy phenyl ester], the pIC50 in the data set on Aβ42 secretion (setting [1]) is 4.58.

In the case of `C=CCc1ccc(OC(=O)C(C)NC(=O)c2cccnc2)c(OC)c1` (centres unmarked) [Compound 14, 4-allyl-2-methoxyphenyl 2-(nicotinamido) propanoate], the pIC50 in the data set with Aβ42 secretion (setting [1]) is 4.81.

As to `C=CCc1ccc(OC(=O)C(CC(C)C)NC(=O)c2cccnc2)c(OC)c1` (centres unmarked) [Compound 15, 4-methyl-2-[pyridine-3-carbonyl]-amino-pentanoic acid-4-allyl-2-methoxy phenyl ester], in the data set on Aβ42 secretion (setting [1]), the pIC50 is less than 4.28.

For the compound `CCC(C)(C)C(=O)O[C@H]1C[C@@H](C)C=C2C=C[C@H](C)[C@H](CC[C@@H]3C[C@@H](O)CC(=O)O3)[C@H]21` [Simvastatin, reference compound], the Percentage change in the data set on Aβ-42 levels in brain came out at 8%.
